From patent US20120165306A1, “PYRAZINYLPYRIDINES USEFUL FOR THE TREATMENT OF PROLIFERATIVE DISEASES” (priority 2009, published 2012) come the findings set out here.

Some results are limits rather than exact numbers.

This experiment deals with Cdk9/cyclinT1 (Homo sapiens, UniProt P50750). Description: Cdk9/cyclinT1 kinase assay (IMAP or Alpha Screen protocol).
Cdk9/cyclinT1, sequence (P50750 whole entry): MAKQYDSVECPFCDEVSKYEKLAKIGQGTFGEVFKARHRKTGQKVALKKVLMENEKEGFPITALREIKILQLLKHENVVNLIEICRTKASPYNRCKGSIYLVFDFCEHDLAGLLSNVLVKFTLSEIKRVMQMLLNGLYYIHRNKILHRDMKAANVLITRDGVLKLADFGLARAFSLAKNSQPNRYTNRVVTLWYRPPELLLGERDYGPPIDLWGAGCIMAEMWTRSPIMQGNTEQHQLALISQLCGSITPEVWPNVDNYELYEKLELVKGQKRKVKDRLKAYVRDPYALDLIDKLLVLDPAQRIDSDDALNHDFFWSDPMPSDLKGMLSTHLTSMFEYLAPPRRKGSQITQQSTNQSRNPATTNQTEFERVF
Cdk9/cyclinT1, sequence (O60563 whole entry partner): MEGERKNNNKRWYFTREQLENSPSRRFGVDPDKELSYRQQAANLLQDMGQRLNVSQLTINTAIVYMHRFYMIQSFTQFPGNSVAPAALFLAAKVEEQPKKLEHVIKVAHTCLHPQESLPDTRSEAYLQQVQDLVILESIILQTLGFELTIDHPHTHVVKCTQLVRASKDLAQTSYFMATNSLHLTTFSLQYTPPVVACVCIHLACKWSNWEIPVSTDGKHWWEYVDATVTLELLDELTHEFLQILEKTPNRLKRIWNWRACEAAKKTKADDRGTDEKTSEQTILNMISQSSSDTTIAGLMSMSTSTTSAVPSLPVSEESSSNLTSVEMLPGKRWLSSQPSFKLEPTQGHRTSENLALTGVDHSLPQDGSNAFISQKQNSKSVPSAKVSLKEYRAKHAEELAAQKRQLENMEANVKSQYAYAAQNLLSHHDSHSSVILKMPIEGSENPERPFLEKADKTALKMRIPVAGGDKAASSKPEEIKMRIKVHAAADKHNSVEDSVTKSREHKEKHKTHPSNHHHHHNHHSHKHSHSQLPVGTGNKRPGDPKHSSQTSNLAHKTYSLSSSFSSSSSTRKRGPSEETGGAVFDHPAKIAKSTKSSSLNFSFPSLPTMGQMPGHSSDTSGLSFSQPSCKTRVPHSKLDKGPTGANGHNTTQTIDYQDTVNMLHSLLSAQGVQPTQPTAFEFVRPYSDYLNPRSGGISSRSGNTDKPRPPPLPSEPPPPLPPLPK
From the text: Cdk9/cyclinT1 IMAP Protocol
Fluorescence polarization (FP) is used for detection.
Cdk9/cyclinT1 Alpha Screen Protocol
What is called IC50 is the concentration that inhibits the measured activity by half. Higher therefore signals a need for much substance. `O=C(Nc1cc(-c2cncc(NCC3CCOCC3)n2)c(Cl)cn1)[C@H]1CNC[C@H]1F` [Example 64, (3R,4S)-4-Fluoro-pyrrolidine-3-carboxylic acid (5-chloro-4-{6-[(tetrahydro-pyran-4-ylmethyl)-amino]-pyrazin-2-yl}-pyridin-2-yl)-amide] came in with an IC50 below 8 nM. `CS(=O)(=O)N1CCC[C@H](C(=O)Nc2cc(-c3cncc(NCC4CCOCC4)n3)c(C(F)(F)F)cn2)C1` [Example 65, (S)-1-Methanesulfonyl-piperidine-3-carboxylic acid (4-{6-[(tetrahydro-pyran-4-ylmethyl)-amino]-pyrazin-2-yl}-5-trifluoromethyl-pyridin-2-yl)-amide] displayed an IC50 of 103 nM. The figure for `CCS(=O)(=O)N1CCC[C@H](C(=O)Nc2cc(-c3cncc(NCC4CCOCC4)n3)c(C(F)(F)F)cn2)C1` [Example 66, (S)-1-Ethanesulfonyl-piperidine-3-carboxylic acid (4-{6-[(tetrahydro-pyran-4-ylmethyl)-amino]-pyrazin-2-yl}-5-trifluoromethyl-pyridin-2-yl)-amide] is 100 nM; for `CC(C)S(=O)(=O)N1CCC[C@H](C(=O)Nc2cc(-c3cncc(NCC4CCOCC4)n3)c(C(F)(F)F)cn2)C1` [Example 67, (S)-1-(Propane-2-sulfonyl)-piperidine-3-carboxylic acid (4-{6-[(tetrahydro-pyran-4-ylmethyl)-amino]-pyrazin-2-yl}-5-trifluoromethyl-pyridin-2-yl)-amide] it is 133 nM; for `CN1CC(C(=O)Nc2cc(-c3cncc(NCC4CCOCC4)n3)c(Cl)cn2)CC1=O` (centres unmarked) [Example 68, 1-Methyl-5-oxo-pyrrolidine-3-carboxylic acid (5-chloro-4-{6-[(tetrahydro-pyran-4-ylmethyl)-amino]-pyrazin-2-yl}-pyridin-2-yl)-amide] it is below 8 nM.
